Assay results as given in patent US6362175B1, “Porphyrin compounds for imaging tissue oxygen” (The Trustees of the University of Pennsylvania, priority 1991, dated 2002).
Values belong to the molecule of their own block, whether it stands above or below them.

Legend:
Assay type in all cases: physicochemical
[1] = Absorption spectra (Soret and Q bands)
Method: (§1) Absorption spectra were recorded on a Beckman DU-64 spectrophotometer. Emission spectra (fluorescence and phosphorescence) were recorded using an AMINCO SPF-500C spectrofluorimeter. ^1H NMR spectra were recorded using a Brucker 300 MHz instrument. Phosphorescence lifetime measurements were performed using a light guide phosphorimeter designed by applicants. HPLC analysis of reaction mixtures was carried out on a SpectraPhysics 8800 gradient system, using an Adsorbosphere HS C4 100×4.6 mm column and methanol:water mixture as a mobile phase.

[2] = Phosphorescence lifetime at zero oxygen, light guide phosphorimeter
Description: (§2) Solvents for phosphorescence measurements were degassed by three freeze-pump-thaw cycles and stored in a vacuum over sodium benzophenone ketyl (THF) or 4 Å molecular sieves (DMF). The solvents were vacuum transferred immediately prior to the phosphorescence measurements and samples were sealed under high vacuum.
(§3) An enzymatic system (glucose-glucose oxidase-catalase) was used for deoxygenation of aqueous solutions and N2-O2 gas mixtures containing either 2.89% of oxygen or 20% oxygen (air) were used for calibration and measurements of the quenching constants.
as §1

[3] = Quenching of phosphorescence by oxygen (Stern-Volmer quenching constant)
Description: Phosphorescence of certain chemical compounds is quenched by oxygen according to the Stern-Volmer relationship which is stated as follows:
where T0 and T are the phosphorescence lifetimes in the absence of oxygen, PO2 is the oxygen pressure for a lifetime of T, and kQ is the quenching constant. The constant kQ is related to the frequency of collisions between the excited triplet state molecule and molecular oxygen and the probability of energy transfer occurring when these molecules collide.
as §3, §1

[4] = Phosphorescence spectra of deoxygenated samples; conditions: solvent THF, 25 °C
Method: as §2, §1
Phosphorescence of a series of metal-TBP compounds was detected using constant irradiation of samples with light wavelengths at their Q and Soret bands. To observe the phosphorescence phenomena and to record phosphorescence spectra, the samples were intensively deoxygenated. Accordingly, highly degassed dimethylformamide (DMF) or THF were used as solvents. The phosphorescence spectra of LuTPhTBP and PdTPhTBP are depicted in FIGS. 5 and 6, respectively.

[5] = solvent DMF, TBP/TPhTBP compounds
[6] = solvent DMF, TPhTNP compounds, average position of split Soret band
[7] = Phy. sol. adjusted to pH 7.4, 38 °C
[8] = Phy. sol. (aqueous, pH 7.0), 38 °C

Molecule: [OH][La]1[n]2c3c4ccccc4c2C(c2ccccc2)=C2N=C(C(c4ccccc4)=c4c5ccccc5c([n]41)=C(c1ccccc1)C1=NC(=C3c3ccccc3)c3ccccc31)c1ccccc12 [La(OH)TPhTBP]
Q-band ([1]; solvent DMF): 633 nm
Soret band [1, 5]: 432 nm

Molecule: [OH][Lu]1[n]2c3c4ccccc4c2C(c2ccccc2)=C2N=C(C(c4ccccc4)=c4c5ccccc5c([n]41)=C(c1ccccc1)C1=NC(=C3c3ccccc3)c3ccccc31)c1ccccc12 [Lu(OH)TPhTBP, lutetium (hydroxy) meso-tetraphenyltetrabenzoporphyrin]
Q-band ([1]; solvent Acetone): 628 nm
Soret band ([1]; solvent Acetone): 423 nm

Molecule: [OH][La]1[n]2c3c4cc5ccccc5cc4c2C(c2ccccc2)=C2N=C(C(c4ccccc4)=c4c5cc6ccccc6cc5c([n]41)=C(c1ccccc1)C1=NC(=C3c3ccccc3)c3cc4ccccc4cc31)c1cc3ccccc3cc12 [La(OH)TPhTNP]
Q-band ([1]; solvent DMF): 708 nm
Soret band [1, 6]: 440 nm

Molecule: c1ccc(C2=C3N=C(C(c4ccccc4)=c4c5ccccc5c5[n]4[Zn][n]4c2c2ccccc2c4C(c2ccccc2)=C2N=C(C=5c4ccccc4)c4ccccc42)c2ccccc23)cc1.c1ccncc1.c1ccncc1 [ZnTPhTBP (Pyridine)2]
Q-band ([1]; solvent Acetone): 625 nm
Soret band ([1]; solvent Acetone): 428 nm

Molecule: c1ccc(C2=C3N=C(C(c4ccccc4)=c4c5ccccc5c5[n]4[Pb][n]4c2c2ccccc2c4C(c2ccccc2)=C2N=C(C=5c4ccccc4)c4ccccc42)c2ccccc23)cc1 [PbTPhTBP]
Q-band ([1]; solvent Acetone): 663 nm
Soret band ([1]; solvent Acetone): 487 nm

Molecule: lutetium (Lu) tetraphenyltetranaphthoporphyrin [LuTPhTNP]
Phosphorescent lifetime at zero-oxygen concentration ([2]; solvent DMF, 25 °C): 172 μs

Molecule: O=C(O)CNS(=O)(=O)c1ccc(C2=C3N=C(C(c4ccc(S(=O)(=O)NCC(=O)O)cc4)=c4c5ccccc5c5[n]4[Pd][n]4c2c2ccccc2c4C(c2ccc(S(=O)(=O)NCC(=O)O)cc2)=C2N=C(C=5c4ccc(S(=O)(=O)NCC(=O)O)cc4)c4ccccc42)c2ccccc23)cc1 [PdTPhTBP (glyc)4]
Q-band ([1]; solvent water): 620 nm
Soret band ([1]; solvent water): 421 nm
Phosphorescent lifetime at zero-oxygen concentration [2, 8]: 408 μs
Quenching constant at a temperature of 38° C. [3, 8]: 186 Torr^−1s^−1

Molecule: [Zn].c1ccc2c(c1)-c1cc3[nH]c(cc4nc(cc5[nH]c(cc-2n1)c1ccccc51)-c1ccccc1-4)c1ccccc31 [ZnTBP (Pyridine)2, zinc tetrabenzoporphyrin]
Q-band ([1]; solvent DMF): 624 nm
Soret band [1, 5]: 425 nm

Molecule: O=S(=O)(N[C@H]1C(O)O[C@H](CO)[C@@H](O)[C@@H]1O)c1ccc(C2=C3N=C(C(c4ccc(S(=O)(=O)N[C@H]5C(O)O[C@H](CO)[C@@H](O)[C@@H]5O)cc4)=c4c5ccccc5c5[n]4[Pd][n]4c2c2ccccc2c4C(c2ccc(S(=O)(=O)N[C@H]4C(O)O[C@H](CO)[C@@H](O)[C@@H]4O)cc2)=C2N=C(C=5c4ccc(S(=O)(=O)N[C@H]5C(O)O[C@H](CO)[C@@H](O)[C@@H]5O)cc4)c4ccccc42)c2ccccc23)cc1 (stereo partly drawn) [PdTPhTBP (glucosamine)4]
Q-band ([1]; solvent water): 615 nm
Soret band ([1]; solvent water): 409 nm
Phosphorescent lifetime at zero-oxygen concentration [2, 8]: 431 μs
Quenching constant at a temperature of 38° C. [3, 8]: 194 Torr^−1s^−1

Molecule: [OH][Lu]1[n]2c3c4cc5ccccc5cc4c2C(c2ccccc2)=C2N=C(C(c4ccccc4)=c4c5cc6ccccc6cc5c([n]41)=C(c1ccccc1)C1=NC(=C3c3ccccc3)c3cc4ccccc4cc31)c1cc3ccccc3cc12 [Lu(OH)TPhTNP]
Q-band ([1]; solvent DMF): 709 nm
Soret band [1, 6]: 440 nm

Continued, values first:

Q-band ([1]; solvent DMF): 694 nm
Soret band [1, 6]: 415 nm
Phosphorescent lifetime at zero-oxygen concentration ([2]; solvent THF, 25 °C): 165 μs
Molecule: c1ccc(C2=C3N=C(C(c4ccccc4)=c4c5cc6ccccc6cc5c5[n]4[Pd][n]4c2c2cc6ccccc6cc2c4C(c2ccccc2)=C2N=C(C=5c4ccccc4)c4cc5ccccc5cc42)c2cc4ccccc4cc23)cc1 [PdTPhTNP]

Q-band ([1]; solvent DMF): 700 nm
Soret band [1, 6]: 425 nm
Molecule: c1ccc(C2=C3N=C(C(c4ccccc4)=c4c5cc6ccccc6cc5c5[n]4[Pt][n]4c2c2cc6ccccc6cc2c4C(c2ccccc2)=C2N=C(C=5c4ccccc4)c4cc5ccccc5cc42)c2cc4ccccc4cc23)cc1 [PtTPhTNP]

Q-band ([1]; solvent DMF): 630 nm
Soret band [1, 5]: 437 nm
Molecule: c1ccc(C2=C3N=C(C(c4ccccc4)=c4c5ccccc5c5[n]4[Pt][n]4c2c2ccccc2c4C(c2ccccc2)=C2N=C(C=5c4ccccc4)c4ccccc42)c2ccccc23)cc1 [PtTPhTBP]

Q-band ([1]; solvent water): 630 nm
Soret band ([1]; solvent water): 415 nm
Phosphorescent lifetime at zero-oxygen concentration [2, 7]: 377 μs
Quenching constant at a temperature of 38° C. [3, 7]: 185 Torr^−1s^−1
Molecule: O=C(O)Cc1ccc(NS(=O)(=O)c2ccc(C3=C4N=C(C(c5ccc(S(=O)(=O)Nc6ccc(CC(=O)O)cc6)cc5)=c5c6ccccc6c6[n]5[Pd][n]5c3c3ccccc3c5C(c3ccc(S(=O)(=O)Nc5ccc(CC(=O)O)cc5)cc3)=C3N=C(C=6c5ccc(S(=O)(=O)Nc6ccc(CC(=O)O)cc6)cc5)c5ccccc53)c3ccccc34)cc2)cc1 [PdTPhTBP (sulfonamide)4]

Q-band ([1]; solvent CHCl3): 610 nm
Soret band ([1]; solvent CHCl3): 420 nm
Phosphorescence maximum [4]: 784 nm
Phosphorescent lifetime at zero-oxygen concentration ([2]; solvent THF, 25 °C): 127 μs
Molecule: c1ccc(C2=C3N=C(C(c4ccccc4)=c4c5ccccc5c5[n]4[Pd][n]4c2c2ccccc2c4C(c2ccccc2)=C2N=C(C=5c4ccccc4)c4ccccc42)c2ccccc23)cc1 [PdTPhTBP, palladium meso-tetraphenyltetrabenzoporphyrin]

Q-band ([1]; solvent Acetone): 642 nm
Soret band ([1]; solvent Acetone): 438 nm
Molecule: c1ccc(C2=C3N=C(C(c4ccccc4)=c4c5ccccc5c5[n]4[Sn][n]4c2c2ccccc2c4C(c2ccccc2)=C2N=C(C=5c4ccccc4)c4ccccc42)c2ccccc23)cc1 [SnTPhTBP]

Q-band ([1]; solvent Acetone): 630 nm
Soret band ([1]; solvent Acetone): 431 nm
Molecule: [OH][Y]1[n]2c3c4ccccc4c2C(c2ccccc2)=C2N=C(C(c4ccccc4)=c4c5ccccc5c([n]41)=C(c1ccccc1)C1=NC(=C3c3ccccc3)c3ccccc31)c1ccccc12 [Y(OH)TPhTBP]
